# Laboratory results as given in patent publication US20180140694A1, “DOSAGE REGIMEN FOR HIV VACCINE” (priority 2015, published 2018).
# Columns and labels:
# [1] = system: latent HIV-1 reservoir in CD4+ T cells; test: Total HIV-1 DNA per 10^6 CD4+ T cells by droplet digital PCR (REDUC); type: in vivo; settings: REDUC Part A, romidepsin infusions without preceding vaccination
# From the text: Total HIV-1 DNA (copies per 10^6 CD4+ T cells): Total HIV DNA quantifies integrated and non-integrated DNA as well as latent and defective virus. There is a strong correlation between total HIV DNA and integrated HIV DNA in patients on cART and therefore cell-associated HIV DNA is likely to be a good surrogate marker of the total number of latently infected cells [Koelsch 2008].
# For HIV-1 DNA quantifications, CD4 T cells were isolated using a CD4+ T Cell Isolation Kit Miltenyi biotec, cat no 130-096-533) on LS columns (Miltenyi biotec, cat no 130-042-401). After CD4 T isolation, cells were resuspended in lysis buffer and digested as previously described [Chomont, 2009 Nat Med, 15(8): 893-900]. Cell lysates were used directly for HIV-1 DNA quantifications using the QX100™ Droplet Digital™ PCR system (Bio-Rad) to determine the absolute levels of total HIV-1 DNA per 106 CD4+ T cells [Strain et al 2013 PLOS One].
# [2] = Safety and tolerability evaluation in REDUC trial (adverse events); type: in vivo, human
# From the text: The primary endpoint of Part A was safety and tolerability; evaluation as measured by adverse events (AE), adverse reactions (AR), serious adverse events (SAE), serious adverse reactions (SAR), serious unexpected adverse reactions (SUSAR).
# The primary endpoint of Part B was firstly, safety and tolerability evaluation as measured by adverse events (AE), adverse reactions (AR), serious adverse events (SAE), serious adverse reactions (SAR), serious unexpected adverse reactions (SUSAR) and dose-limiting toxicity.
# Plasma HIV-1 RNA [3] = settings: REDUC Part A
# Protocol: Plasma HIV RNA, quantitative viral load: Measured by Roche VL (routine clinical assay).
# (§1) Plasma HIV RNA, quantitative viral load, was measured by Cobas® TaqMan® HIV-1 Test, v2.0 (Roche) according the manufacturer's instruction (routine clinical assay). The lower limit of quantification for this assay is 20 copies HIV-1 RNA/mL, but it provides a qualitative assessment below this.
# [4] = system: HIV-1 transcription in CD4+ T cells; test: Cell associated unspliced HIV-1 RNA in CD4+ T cells by droplet digital PCR (REDUC); type: in vivo; settings: REDUC Part A
# Protocol: Unspliced HIV-1 RNA (copies per 10^6 CD4+ T cells): HIV transcription was measured as copies of cell-associated unspliced HIV-1 RNA/106 CD4+ T cells using digital droplet PCR.
# HIV transcription was measured as copies of cell-associated unspliced HIV-1 RNA/106 CD4+ T cells using digital droplet PCR. CD4+ T-cells were isolated from PBMCs using Miltenyi Biotec negative bead separation kit (CD4 T cell isolation, #130-096-533) as described with LD separation columns, lysed (Lysis buffer from Qiagen DNA/RNA extraction kit), and stored ad −80° C. until extraction of RNA and DNA (Allprep isolation kit, Qiagen). Reverse transcription, amplification and quantitation of cell-associated unspliced HIV RNA from HIV patients was performed as follows. In summary, HIV unspliced RNA was detected on the BioRad QX100 droplet digital platform using a defined primer/probe set and related to total cell input by quantitation of the IPO8 (Importin 8) and TBP (Tata Binding Protein) gene transcription. […] After cycling droplets were subsequently read automatically by the QX100 droplet reader (BioRad) and the data was analyzed with the QuantaSoft™ analysis software (BioRad). On average, the six HIV replicates generated 80,000-98,000 droplets to be analyzed per time point.
# [5] = system: Histone H3 acetylation in lymphocytes; test: Histone H3 acetylation in lymphocytes by flow cytometry (REDUC); type: in vivo, human; settings: REDUC Part A, following each romidepsin administration, 5 mg/m^2
# Protocol: Histone H3 acetylation: Measured in lymphocytes using flow cytometry with intracellular cytokine stain on fresh isolated PBMCs.
# Histone H3 acetylation was measured in lymphocytes using flow cytometry with intracellular cytokine staining on fresh isolated PBMCs. Freshly isolated PBMC's were fixated, permeabilised and stained with acetylation-specific antibodies, providing the possibility to evaluate epigenetic modifications on Histones (Rigby L, Muscat A, Ashley D, Algar E. Epigenetics 2012; 7(8):875-882). Briefly, PBMCs (1×10^6) were resuspended in 3 ml ice-cold PBS/1% FBS and centrifuged, then vortexed to dissolve pellet and fixative added, 100 μl 2% PFA (ice-cold), vortexed briefly and incubated on ice for 15 min. Cells were then washed in 4 ml PBS, resuspended in 200 μl PBS and stored at 4° C. until staining. Samples were washed with 3 ml FACS buffer and vortexed to dissolve cell pellet prior to adding 100 μl 0.2% Triton X-100, vortexed briefly and incubated for 10 min. at room temperature (RT). Samples were then washed with FACS buffer, 600 μl Block (PBS/10% FBS) was added, sample vortexed to resuspend cell pellet and incubated for 20 min at RT. […] Finally, samples were washed with FACS buffer and resuspended in 80 μl PBS and analyzed by FACS (50 000 events, anti-acetyl histone H3 Median Fluorescence Intensity, MFI, calculated by subtracting background MFI from isotype control).
# Plasma HIV-1 RNA [6] = test: Plasma HIV-1 RNA by transcription mediated amplification (NAT screen, PROCLEIX ULTRIO Plus); type: in vivo; settings: REDUC Part A
# Protocol: Plasma HIV-1 RNA detection by NAT screen: Measured by a transcription mediated amplification (TMA)-based methodology, usually referred to as a nucleic acid test (NAT)-screen (PROCLEIX ULTRIO Plus, Genprobe).
# as §1, with “this. Plasma HIV-1 RNA was also measured by a transcription mediated amplification (TMA)-based methodology, usually referred to as a nucleic acid test (NAT)-screen (PROCLEIX ULTRIO Plus, Genprobe), according to manufacturer's instructions.” for “this.”
# [7] = REDUC Part A, romidepsin 5 mg/m^2, 6 patients
smiles,measurement,setting,value
"C/C=C1\NC(=O)[C@H]2CSSCC/C=C/[C@H](CC(=O)N[C@H](C(C)C)C(=O)N2)OC(=O)[C@H](C(C)C)NC1=O [romidepsin, (1S,4S,7Z,10S,16E,21R)-7-ethylidene-4,21-bis(1-methylethyl)-2-oxa-12,13-dithia-5,8,20,23-tetraazabicyclo[8.7.6] tricos-16-ene-3,6,9,19,22-pentone]",size of the latent reservoir,[1],not affected
same,adverse event grade,[2]; [7],most adverse events (AEs) were of grade 1
same,serious adverse events,[2]; [7],No serious adverse events were observed
same,adverse events considered related to the agent,"[2]; REDUC Part B, of 141 in total",57 adverse events
same,extracellular HIV RNA as a result of romidepsin infusion,Plasma HIV-1 RNA [3],significantly increased
same,patients with plasma HIV-1 RNA increased to readily quantifiable levels,Plasma HIV-1 RNA [3]; multiple post-infusion time-points,5 of 6 patients
same,plasma HIV-1 RNA,"Plasma HIV-1 RNA [3]; range following the second infusion, <20 copies/mL at baseline",46-103 copies/mL
same,cell-associated un-spliced HIV RNA as a result of romidepsin infusion,[4],significantly increased
same,"cell-associated un-spliced HIV-1 RNA, fold range from baseline",[4]; after third infusion,2.4-5.0 fold
same,"Lymphocyte histone H3 acetylation, maximum fold range relative to baseline",[5],3.7-7.7 fold
same,"Plasma HIV-1 RNA detection by transcription-mediated amplification assay, post-infusion versus baseline",Plasma HIV-1 RNA [6],detected more frequently
